# Results reported in patent US20160185774A1, “Anti-Infective Compounds” (priority 2013, published 2016).
# Columns and labels:
# M. tuberculosis = assay: microbe, parasite or virus in culture; format: cell-based; details: Mycobacterium tuberculosis, 120 h; read-out: QUM (MIC80)
# M. tuberculosis H37Rv = assay: In vivo activity in a murine model of acute tuberculosis infection (lung CFU); details: 50 mg/kg orally once daily, 3 days of treatment starting at day 6, female BalbC mice
# Procedure: The effect of compounds 171 and 175 on the bacterial load of TB-infected mice was compared to that of the reference compound Isoniazid (INH). 8-week old female BalbC mice were infected with 8×10^6 M. tuberculosis H37Rv via intranasal inoculation. Mice were sacrificed at day 1 to control the number of CFU in the lungs. In the acute model of infection, mice were treated for 3 days, starting at day 6. Compounds were freshly dissolved in a 20% d-α-tocopheryl polyethylene glycol 1000 succinate (ETPGS) solution and administered by oral gavage as single dose per day. Bacterial load was assessed in lungs after homogenizing the organs in 1×PBS. Serial dilutions of organs homogenates were spread on Middlebrook 7H11 plates and CFU were determined after 3 weeks incubation at 37° C. under 5% CO2.
Structure (SMILES),MIC80 (M. tuberculosis) [µM],CFU in the lungs compared to untreated mice (M. tuberculosis H37Rv),melting point
CCc1nc2cc(C)ccn2c1C(=O)NCc1ccc(N2CCC(c3ccc(OC(F)(F)F)cc3)CC2)cc1 [Compound 171],< 1,reduction of CFU compared to untreated mice,–
CCc1nc2cc(F)ccn2c1C(=O)NCc1ccc(N2CCC(c3ccc(OC(F)(F)F)cc3)CC2)cc1 [Compound 175],< 1,reduction of CFU compared to untreated mice,–
CCc1nc2ccc(Cl)cn2c1C(=O)NCc1cc2cc(Cl)ccc2o1 [Compound 261],< 1,–,223.5 to 225.6 °C
CCc1nc2ccc(Cl)cn2c1C(=O)NCc1nc2ccc(Cl)cc2n1C [Compound 262],> 20,–,> 220 °C
CCc1nc2ccc(Cl)cn2c1C(=O)NCc1nc2cc(Cl)ccc2n1C [Compound 263],> 20,–,> 220 °C
CCc1nc2ccc(Cl)cn2c1C(=O)NCc1nc2ccc(Cl)cc2o1 [Compound 264],1 to 20,–,201.1 to 201.8 °C
CCc1nc2cc(Cl)ccn2c1C(=O)NCc1nc2cc(-c3ccc(OC(F)(F)F)cc3)ccc2o1 [Compound 265],1 to 20,–,> 220 °C
CCc1nc2ccc(Cl)cn2c1C(=O)NCc1nc2ccc(Cl)cc2s1 [Compound 266],1 to 20,–,> 220 °C
CCc1nc2ccc(F)cn2c1C(=O)NCc1ccc(N2CCC(c3ccc(OC(F)(F)F)cc3)CC2)cc1 [Compound 267],< 1,–,> 167.9 °C (dec.)
CCc1nc2c(F)cccn2c1C(=O)NCc1ccc(N2CCC(c3ccc(OC(F)(F)F)cc3)CC2)cc1 [Compound 268],< 1,–,> 177.7 °C (dec.)
CCc1nc2cc(Cl)ccn2c1C(=O)NCc1nc2ccc(-c3ccc(OC(F)(F)F)cc3)cc2o1 [Compound 269],< 1,–,> 220 °C
CCc1nc2cc(Cl)ccn2c1C(=O)NCc1ccc(N2CC(Cc3ccc(F)cc3)OC2=O)cc1 (centres unmarked) [Compound 270],< 1,–,> 96.9 °C (dec.)
CCc1nc2cc(Cl)ccn2c1C(=O)NCc1ccc(N2CC(COc3ccc(F)cc3)OC2=O)cc1 (centres unmarked) [Compound 271],1 to 20,–,> 97.1 °C
CCc1nc2ccc(Cl)cn2c1C(=O)NCc1ccc(CN2CCOC2=O)cc1 [Compound 282],1 to 20,–,179 °C
CCc1nc2cc(Cl)ccn2c1C(=O)NCc1ccc(CN2CCOC2=O)cc1 [Compound 283],1 to 20,–,172 °C
CCc1nc2ccc(Cl)cn2c1C(=O)NCc1ccc(CN2CCOCC2)cc1 [Compound 284],< 1,–,133 °C
CCc1nc2cc(Cl)ccn2c1C(=O)NCc1ccc(CN2CCOCC2)cc1 [Compound 285],< 1,–,107 °C
CCc1nc2ccc(Cl)cn2c1C(=O)NCc1ccc(N(C)c2ccc(OC(F)(F)F)cc2)cc1 [Compound 286],< 1,–,138 °C
CCc1nc2cc(Cl)ccn2c1C(=O)NCc1ccc(N(C)c2ccc(OC(F)(F)F)cc2)cc1 [Compound 287],< 1,–,134 °C
CCc1nc2ccccn2c1C(=O)NCc1ccc(N(C)c2ccc(OC(F)(F)F)cc2)cc1 [Compound 288],< 1,–,120 °C
COc1ccc2nc(C)c(C(=O)NCc3ccc(N4CCC(c5ccc(F)cc5)CC4)cc3)n2c1 [Compound 289],< 1,–,192 °C
COc1ccc2nc(C)c(C(=O)NCc3ccc(N4CCC(c5ccc(C)cc5)CC4)cc3)n2c1 [Compound 290],< 1,–,178 °C
COc1ccc2nc(C)c(C(=O)NCc3ccc(N4CCC(c5ccc(C(F)(F)F)cc5)CC4)cc3)n2c1 [Compound 291],< 1,–,207 °C
COc1ccc2nc(C)c(C(=O)NCc3ccc(N4CCC(c5ccc(OC(F)(F)F)cc5)CC4)cc3)n2c1 [Compound 292],< 1,–,183 °C
Cc1ccc2nc(C)c(C(=O)NCc3ccc(N4CCC(c5ccc(F)cc5)CC4)cc3)n2c1 [Compound 293],< 1,–,181 °C
Cc1ccc2nc(C)c(C(=O)NCc3ccc(N4CCC(c5ccc(Cl)cc5)CC4)cc3)n2c1 [Compound 294],< 1,–,188 °C
COc1ccc(C2CCN(c3ccc(CNC(=O)c4c(C)nc5ccc(C)cn45)cc3)CC2)cc1 [Compound 295],< 1,–,184 °C
Cc1ccc2nc(C)c(C(=O)NCc3ccc(N4CCC(c5ccc(OC(F)(F)F)cc5)CC4)cc3)n2c1 [Compound 296],< 1,–,184 °C
